Results as given in PubChem BioAssay AID1324 (NMMLSC, 2008).
Calls of active or inactive are those of the source. How the calls were made is not given here.

Target: glutathione S-transferase (GST-GSH binding)
Test: GST–glutathione interaction disruption – biochemical, multiplex beads, flow cytometry, HPSMTB buffer, profiling panel (AID 1324);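 further: glutathione beads loaded with GST-green fluorescent protein and no fluorescent Bim peptide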
Conditions: multiplex bead flow cytometry, MCF

| SMILES | EC50 |
| --- | --- |
| Cc1cccc(/C=N/N(CCO)C2=NS(=O)(=O)c3ccccc32)c1 | inactive |

Same assay, conditions: multiplex bead flow cytometry, MCF, concentration not given here

| SMILES | percent span inhibition |
| --- | --- |
| COc1ccc(CCNC(=O)c2cc(-c3ccccn3)nc3c(Cl)cccc23)cc1OC | inactive |
| O=C(CSc1nc2ccsc2c(=O)n1Cc1ccc(C(=O)O)cc1)NCC1CCCO1 (stereo not drawn) | inactive |
| Cc1cc(C)c(C)c(S(=O)(=O)N2CCN(CC(=O)NC(=O)NCc3ccccc3)CC2)c1C | inactive |
| O=C(C1=NN[C@@H]2C(=O)N(c3ccccc3C(F)(F)F)C(=O)[C@H]12)c1ccc2ccccc2n1 | inactive |
| Nc1ccc(N2CCCCCC2)cc1 | inactive |
| CCCOc1ccc(-c2c(C(=O)N/N=C/c3ccc(OC)cc3)nnn2-c2nonc2N)cc1 | inactive |
| Cc1ccc(-c2nnc(Cc3ccc(Cl)cc3)o2)cc1 | inactive |
| Cc1cccc(-n2c(O)c(/C=N/N3CCOCC3)c(=O)[nH]c2=S)c1 | inactive |
| O=C1C(Cl)=C(N2CCN(c3ccccc3[N+](=O)[O-])CC2)C(=O)c2ccccc21 | inactive |
| COc1ccc(-n2c(SCC(=O)Nc3ccc(C(=O)O)cc3)nnc2-c2cccs2)cc1 | inactive |
| CS(=O)(=O)NN1C(=O)c2ccccc2NC1c1cccc2cccnc12 (stereo not drawn) | inactive |
| Cc1csc(Nc2ccccc2C(F)(F)F)n1 | inactive |
| CN1C2C=C3C(C#N)=C(N)C(C#N)(C#N)[C@@H](c4ccsc4)[C@@H]3C1CC2 (stereo partly drawn) | inactive |
| O=C(O)CC/C(=C\c1cc([N+](=O)[O-])ccc1Cl)c1nc2ccccc2s1 | inactive |
| O=[N+]([O-])c1ccc(N2CCN(c3ccc(O)cc3)CC2)c(Cl)c1 | inactive |
| COc1ccc(COC(=O)NNC(=O)c2ccccc2Cl)cc1 | inactive |
| CCOc1ccc(C2=Nn3c(nnc3-c3ccccn3)SC2)cc1 | inactive |
| COc1ccc(C2(NC(C)=O)CCN(C(=O)c3ccco3)CC2)cc1 | inactive |
| Cc1ccc(N=C2NC(=O)/C(=C/C=C/c3ccco3)S2)cc1 | inactive |

| SMILES | percent span inhibition |
| --- | --- |
| Cc1ccc(C(=O)CCC(=O)Nc2ccc(Cl)c(S(=O)(=O)Nc3cccc(Cl)c3)c2)cc1 | inactive |
| CN(/N=C/c1cccnc1)C1=NS(=O)(=O)c2ccccc21 | inactive |
| Cc1ccc(-c2cc(C(=O)Nc3ccccn3)c3ccccc3n2)o1 | inactive |
| Clc1ccc(N=c2ssnc2Cl)nc1 | inactive |
| COc1ccc(C2C(C#N)=C(C)NC3=C2S(=O)(=O)c2ccccc23)cc1 (stereo not drawn) | inactive |
| FC(F)(F)c1ccc2c(c1)C1C=CCC1C(c1ccncc1)N2 (stereo not drawn) | inactive |
| COc1ccc(-c2csc(NC(=O)/C(N=Nc3ccccc3)=C(\C)O)n2)cc1 | inactive |
| COc1ccc(-n2c(NC(=O)c3ccco3)c(C#N)c3nc4ccccc4nc32)cc1 | inactive |
| CC(C)(C)OC(=O)N1CCN(C(=O)[C@H](Cc2ccc(O)cc2)n2cc(CCO)nn2)CC1 | inactive |
| CN(C(=O)NC1CCCCC1)c1ccccc1 | inactive |
| COc1ccc(N2CCN(CCCNC(=O)CCCn3c(=O)[nH]c4ccsc4c3=O)CC2)cc1 | inactive |
| Cc1cc(N)ccc1N1CCCC1 | inactive |
| Brc1ccc2ncnc(Nc3ccc(N4CCOCC4)cc3)c2c1 | inactive |
| O=[N+]([O-])c1ccc(-c2cn(-c3ccc(Cl)cc3)c(=S)[nH]2)cc1 | inactive |
| Cc1nc(=S)c2ccccc2[nH]1 | inactive |
| S=C1NC2=C(CCC/C2=C\c2ccccc2)C(c2ccccc2)N1 (stereo not drawn) | inactive |
| CCN(CC)c1ccc(NC(=O)c2ccccc2Br)cc1S(=O)(=O)Nc1ccccc1OC | inactive |
| O=C(C[n+]1ccc(-c2nnc3n2CCC3)cc1)c1ccc(Cl)c(Cl)c1 | inactive |
